Results taken from patent US12459943B2, “Crystalline solid forms of a BET inhibitor” (Incyte Corporation, priority 2016, dated 2025).

Experiments:
[1] = Relative stability and interconversion of crystalline forms in organic solvents; type: physicochemical
[2] = Stability of crystalline forms in aqueous suspension; type: physicochemical
Experimental: Recrystallization conducted in a mixture of tetrahydrofuran (THF), acetone, and n-heptane using similar procedures as above afford Form II of the crystalline Compound 1 drug substance was obtained. Both Form I and Form II have very sharp melting endotherm peaks on DSC, and the two forms are about one degree difference in peak melting temperature: 266.4° C. for Form I and 267.5° C. for Form II.

relative stability of the crystalline form in MeOH and acetone ([1]; MeOH and acetone)	interconversion of forms ([1]; mixture of methanol, acetone, and n-heptane, depending on solvent ratio, temperature, and time)	stability in aqueous suspension [2]	relative stability of the crystalline form in IPA ([1]; IPA)	Compound
most stable form	could be interconverted to each other	stable in aqueous suspension	–	CN1C(=O)C(C)(C)Oc2c(-c3cn(C)c(=O)c4[nH]ccc34)cc(S(C)(=O)=O)cc21 [Form I, 2,2,4-trimethyl-8-(6-methyl-7-oxo-6,7-dihydro-1H-pyrrolo[2,3-c]pyridin-4-yl)-6-(methylsulfonyl)-2H-benzo[b][1,4]oxazin-3(4H)-one]
–	–	–	more stable	CN1C(=O)C(C)(C)Oc2c(-c3cn(C)c(=O)c4[nH]ccc34)cc(S(C)(=O)=O)cc21 [Form II, 2,2,4-trimethyl-8-(6-methyl-7-oxo-6,7-dihydro-1H-pyrrolo[2,3-c]pyridin-4-yl)-6-(methylsulfonyl)-2H-benzo[b][1,4]oxazin-3(4H)-one]
